Data: patent US8044065B2, “Benzothienopyridines for use as inhibitors of Eg5 kinesin” (Altana Pharma AG, priority 2004, dated 2011)
Blank lines part the entries; values can stand above or below the compound they belong to.

What was measured:
[1] = tested on: RKO colon adenocarcinoma cells (RKOp27), arrested by p27Kip1 induced by Ponasterone A; test: Alamar Blue cell viability assay, RKO p27 induced by Ponasterone A (arrested cells); type: cell-based; conditions: Homo sapiens, RKO p27 induced (10 μM Ponasterone A), 72 hours, read-out: Anti-proliferative/cytotoxic activity, -log IC50, RKO p27 induced (converted)
Experimental: To determine the cell cycle specific mode of action, subclones of RKO colon adenocarcinoma cells (RKOp27 as described by Schmidt et al. in Oncogene 19, 2423-2429; 2000) are seeded into 96 well flat bottom plates at a density of 16000 cells per well in a volume of 50 μl per well in DMEM growth medium with 10% FCS containing 10 μM Ponasterone A. 24 hours after seeding the 50 μl each of the compound dilutions in DMEM medium are added into each well of the 96-well plate. Each compound dilution is tested as quadruplicates. Wells containing untreated control cells are filled with 50 μl DMEM medium containing 1% DMSO. The cells are then incubated with the substances for 72 hours at 37° C. in a humidified atmosphere containing 5% carbon dioxide. To determine the viability of the cells, 10 μl of an Alamar Blue solution (Biosource) are added and the fluorescence is measured at an extinction of 544 nm and an emission of 590 nm. For the calculation of the cell viability the emission value from untreated cells is set as 100% viability and the emission rates of treated cells are set in relation to the values of untreated cells. Viabilities are expressed as % values. Viability is compared of proliferating cells grown in the absence of the inducer Ponasterone A, versus viability of cells arrested by the expression of ectopic p27Kip1 induced by Ponasterone A.

[2] = tested on: RKO human colon adenocarcinoma cells (RKOp27), uninduced; test: Alamar Blue cell viability assay, RKO p27 uninduced (proliferating cells); type: cell-based; conditions: 72 hours, read-out: Anti-proliferative/cytotoxic activity, -log IC50, RKO p27 uninduced (converted)
Experimental: The anti-proliferative/cytotoxic activity of the compounds described herein can be tested on subclones of RKO human colon adenocarcinoma cells (Schmidt et al., Oncogene 19, 2423-2429; 2000) using the Alamar Blue cell viability assay (described in O'Brien et al. Eur J Biochem 267, 5421-5426, 2000). The compounds are dissolved as 10 mM solutions in DMSO and subsequently diluted in semi-logarithmic steps. DMSO dilutions are further diluted 1:100 into Dulbecco's modified Eagle's medium (DMEM) containing 10% fetal calf serum to a final concentration twice as much as the final concentration in the test. RKO subclones are seeded into 96 well flat bottom plates at a density of 4000 cells per well in a volume of 50 μl per well. 24 hours after seeding the 50 μl each of the compound dilutions in DMEM medium are added into each well of the 96 well plate. Each compound dilution is tested as quadruplicates. Wells containing untreated control cells are filled with 50 μl DMEM medium containing 1% DMSO. […] To determine the viability of the cells, 10 μl of an Alamar Blue solution (Biosource) are added and the fluorescence is measured at an extinction of 544 nm and an emission of 590 nm. […] Viabilities are expressed as % values.
The corresponding IC50 values of the compounds for anti-proliferative/cytotoxic activity are determined from the concentration-effect curves.
To determine the cell cycle specific mode of action, subclones of RKO colon adenocarcinoma cells (RKOp27 as described by Schmidt et al. in Oncogene 19, 2423-2429; 2000) are seeded into 96 well flat bottom plates at a density of 16000 cells per well in a volume of 50 μl per well in DMEM growth medium with 10% FCS containing 10 μM Ponasterone A. 24 hours after seeding the 50 μl each of the compound dilutions in DMEM medium are added into each well of the 96-well plate. […] To determine the viability of the cells, 10 μl of an Alamar Blue solution (Biosource) are added and the fluorescence is measured at an extinction of 544 nm and an emission of 590 nm. […] Viabilities are expressed as % values. […]

[3] = tested on: RKOp27 colon cancer cells; test: Induction of apoptosis, Cell death detection ELISA; type: cell-based; conditions: Homo sapiens, 24 hours, relative to 50 μM cisplatin = 100 cpu, read-out: Apoptosis Induction, -log EC50 (converted)
Experimental: The induction of apoptosis can be measured by using a Cell death detection ELISA (Roche Biochemicals, Mannheim, Germany). RKOp27 colon cancer cells are seeded into 96 well flat bottom plates at a density of 10000 cells per well in a volume of 50 μl RPMI medium (containing 10% fetal calf serum) per well. 24 hours after seeding the 50 μl each of the compound dilutions in RPMI medium are added into each well of the 96 Well plate. Each compound dilution is tested at least as triplicates. Wells containing untreated control cells are filled with 50 μl RPMI medium containing 1% DMSO. The cells are then incubated with the substances for 24 hours at 37° C. in a humidified atmosphere containing 5% carbon dioxide. As a positive control for the induction of apoptosis, cells are treated with 50 μM Cisplatin (Gry Pharmaceuticals, Kirchzarten, Germany). Medium is then removed and the cells are lysed in 200 μl lysis buffer. After centrifugation as described by the manufacturer, 10 μl of cell lysate is processed as described in the protocol. The degree of apoptosis is calculated as follows: The absorbance at 405 nm obtained with lysates from cells treated with 50 μM cisplatin is set as 100 cpu (cisplatin units), while an absorbance at 405 nm of 0.0 was set as 0.0 cpu. The degree of apoptosis is expressed as cpu in relation to the value of 100 cpu reached with the lysates obtained from cells treated with 50 μM cisplatin. The corresponding EC50 values of the compounds for apoptosis inducing activity are determined from the concentration-effect curves.

[4] = tested on: NCl-H460 non-small cell lung cancer cells; test: Mitotic spindle malformation by confocal laser scanning microscopy; type: cell-based; conditions: 1 μM, 24 hours, anti-alpha tubulin and Hoechst 33342 staining
Experimental: Experimental perturbation of Eg5 function causes a characteristic malformation of the mitotic spindle, which can be examined by confocal laser scanning microscopy. NCl-H460 non-small cell lung cancer cells are grown overnight on glass cover slips (Nunc™ Lab-Tek™ Chamber Slides) in 1800 μl DMEM medium containing 10% fetal calf serum. The test compounds are dissolved as 10 mM solutions in DMSO. Appropriate DMSO dilutions of the test compounds are further diluted 1:10 into DMEM medium containing 10% fetal calf serum to a final concentration ten times as much as the final concentration in the test. 24 hours after seeding, 200 μl of the compound dilutions in DMEM medium are added into each well of the cover slip. As a control, 200 μl DMEM medium containing 10% DMSO are added. 24 hours after incubation with the test compounds, the cells are washed with PBS, and fixed with 3.7% formaldehyde in H2O for 20 min. at 37° C. Subsequently, cells are washed with PBS and incubated with 0.1% Triton X-100 in a buffer containing 1.471 mM KH2PO4, 8.504 mM Na2HPO4, 137 mM NaCl, 1.325 mM CaCl2, 2.685 mM KCl, 0.542 mM MgCl2, pH 7.2 for 15 min. at room temperature. […]

Structure (SMILES): CN1C(=O)N2[C@H](c3cccc(O)c3)c3[nH]c4ccccc4c3C[C@@]2(C)C1=O [Example 2, (3aS,10R)-10-(3-Hydroxy-phenyl)-2,3a-dimethyl-3a,4,9,10-tetrahydro-2,9,10a-triaza-cyclopenty[b]fluorene-1,3-dione]
- IC50 [1]: ≥ 100000 nM
- IC50 [2]: ≤ 631 nM
- EC50 [3]: ≤ 2510 nM

- melting point: 299 to 305 °C
Structure (SMILES): CN1C(=O)N2C(c3cccc(O)c3)c3[nH]c4ccccc4c3CC2(C)C1=O (racemic) [Example 1, (±)-(3aSR,10RS)-10-(3-Hydroxy-phenyl)-2,3a-dimethyl-3a,4,9,10-tetrahydro-2,9,10a-triaza-cyclopenty[b]fluorene-1,3-dione]
- Mitotic arrest / mitotic spindle phenotype [4]: significant enrichment of cells arrested in mitosis
- IC50 [1]: ≥ 100000 nM
- IC50 [2]: ≤ 631 nM
- EC50 [3]: ≤ 2510 nM

- melting point: 213.3 to 216.4 °C
Structure (SMILES): CN1C(=O)C2Cc3c(sc4ccccc34)C(c3cccc(O)c3)N2C1=O [Example 3, (3aS,10R)-10-(3-Hydroxy-phenyl)-2-methyl-4,10-dihydro-3aH-9-thia-2,10-diaza-cyclopenta[b]fluorene-1,3-dione]
- Mitotic arrest / mitotic spindle phenotype [4]: significant enrichment of cells arrested in mitosis
- IC50 [1]: ≥ 100000 nM
- IC50 [2]: ≤ 631 nM
- EC50 [3]: ≤ 2510 nM

Structure (SMILES): CN1C(=O)N2[C@H](c3cccc(O)c3)c3sc4ccccc4c3C[C@@]2(C)C1=O (racemic) [Example 5, (3aSR,10RS)-10-(3-Hydroxy-phenyl)-2,3a-dimethyl-4,10-dihydro-3aH-9-thia-2,10a-diaza-cyclopenta[b]fluorene-1,3-dione]
- EC50 [3]: ≤ 2510 nM
